A short description of this experiment: Broad-spectrum taste masking test on decoctions of extremely bitter Chinese herbal medicine slices. In kind it is in vivo, healthy volunteers. The arrangement: key: reduction in bitterness degrees on a 5-degree graduation scale. To be noted: 0.1% taste masking agent in 40% ethanol. The procedure: According to the standard of decocting 100 ml of liquid from 10 g of dry Chinese herbal medicine slices (decoction method: use a stainless steel container, and keep for 20 minutes after boiling), from 300 commonly used Chinese herbal medicine slices, combined with the Chinese Pharmacopoeia, more than 20 Chinese herbal medicines with bitter or extremely bitter properties written in the pharmacopoeia were selected, including Bletilla striata, Cortex qin, Stephania tetrandra, Apricot kernel, Belamcanda chinensis, Angelica dahurica, Lotus seed heart, Toosendan fruit, Andrographis paniculata, Sophora flavescens, Coptis chinensis, Gentiana scabra, Forsythia suspensa, Sophora japonica, Phellodendron amurense, Scutellaria baicalensis, Platycodon grandiflorum, Notopterygium wilfordii, Saposhnikovia divaricata, Perilla frutescens, Zanthoxylum bungeana, Osmanthus fragrans, Sophora flavescens, and Chrysanthemum officinale, totally 24 kinds of Chinese herbal medicines.
Finally, through the 5-degree graduation method, 2 species with a bitterness higher than 3.5 (moderate bitterness) and 7 species with a bitterness higher than 5 degrees (highly bitter, extremely bitter, accompanied by nausea) were screened out, a total of 9 species (Angelica pubescens, Lotus Seed Heart, Toosendan, Andrographis paniculata, Sophora flavescens, Coptis chinensis, Gentiana scabra, Forsythia suspensa, Sophora japonica) are selected as bitterness representatives to participate in the bitterness masking experiment. (Note: The bitterness of Coptis chinensis slices can reach 5.2 after 20 minutes of water decoction. The reference standard solution is 90-degree water brewing Coptis chinensis powder, it is automatically cooled to obtain a solution with a bitter taste of 4.0. Because Coptis chinensis has been used as a standard bitter liquid, it is no longer used).
The experimental method is the same as the previous part.

The mark [1] stands for this setting: Andrographis paniculata, original bitterness 5.
The mark [2] stands for this setting: Forsythia suspensa, original bitterness 3.
[3] abbreviates: Gentiana, original bitterness 5.
The mark [4] stands for this setting: Lotus seed heart, original bitterness 5.
[5] abbreviates: Sophora flavescens, original bitterness 5.
Setting [6] is: Toulianzi, original bitterness 5.

Turning to `C=CC(C)(O)CCC=C(C)C` (stereo not drawn) [Linalool, linalool], the Bitterness reduction value is 0.8 under setting [1]; 2 under setting [2]; 1.2 under setting [3]; 1.6 under setting [4]; 2.5 (Puhuo, original bitterness 5); 0.5 under setting [5]. Besides, the Bitterness reduction value under setting [6] is listed as 1.1.
Consider `CC(C)=CCCC(C)=CC=O` [Citral, citral], for which the Bitterness reduction value was found to be 1.5 under setting [1]; 2.5 under setting [2]; 3.7 under setting [3]; 3.5 under setting [4]; 3.75 (Puhuo, original bitterness 5); 1.7 under setting [5]. The same molecule gave a Bitterness reduction value under setting [6] of 1.5.
The molecule `O=CC=Cc1ccccc1` [Cinnamaldehyde, 3-phenyl-2-propenal] yielded a Bitterness reduction value under setting [1] of 4; a Bitterness reduction value under setting [2] of 1.7; a Bitterness reduction value under setting [3] of 4.2; a Bitterness reduction value under setting [4] of 2.3; a Bitterness reduction value (Puhuo, original bitterness 5) of 4.2; a Bitterness reduction value under setting [5] of 2.3. Under setting [6], the Bitterness reduction value came to 3.5.
